Data published in patent publication US12024502B2, “Biased adrenergic agonists” (University of South Florida, priority 2021, dated 2024).

Columns and labels:
[1] = system: human airway smooth muscle (HASM) cells; assay: Magnetic twisting cytometry (MTC) of HASM cells: relaxation and desensitization; assay type: cell-based; settings: 1.0 mM ALB or 100 mM C1-S as printed, then 10 μM ISO
Description: CHW cells were transfected to stably express the human β2AR under G418 selection and maintained in monolayers as previously described. Transient transfections of HEK-293T cells with constructs to express human β-arrestin2-myc, human β-arrestin2-GFP, human β2AR and β2AR-GFP, were performed using Lipofectamine 2000 (Invitrogen), and studied 48 hrs later. CHO cells stably expressing a modified β2AR and a modified β-arrestin2 for the ECA were purchased from DiscoverX. In some experiments, these cells were transiently transfected with 5 μg GRK2 cDNA. Primary HASM cells were derived from donor lungs obtained from the National Disease Exchange Registry and maintained as monolayers, and utilized between passages 3 and 6 for the physiological studies. […]
MTC was used to measure dynamic changes in the cytoskeletal stiffness as a surrogate for agonist-induced single-cell relaxation. […] Forced bead motions were detected optically with a spatial resolution of ˜5 nm, and their changes monitored, in real time, in response to b-agonist (HASM cell relaxation). […] The response to 10 μM isoproterenol (final concentration) added to the media was then determined every 1.3 sec. […] The greatest relaxation change from baseline observed at any point over the time course was utilized to quantify the maximal HASM response to isoproterenol.

[2] = system: ERK1/2; assay: ERK1/2 activation immunoblot in the presence of PKA inhibitor H89; assay type: cell-based, human; settings: β2AR transfected HEK-293 cells; PKA inhibitor H89 present; vs vehicle control

Row | SMILES | desensitization of β2AR-mediated HASM cell relaxation response to ISO ([1]; 30 min pretreatment) | desensitization of β2AR-mediated HASM cell relaxation response to ISO ([1]; 4 hour pretreatment) | activation of ERK1/2 [2]
1 | CC(C)(C)NCC(O)c1ccc(O)c(CO)c1 (stereo not shown) [ALB, albuterol] | caused desensitization | caused desensitization | activation of ERK1/2
2 | CC(C)NCC(O)c1ccc(O)c(O)c1 (stereo not shown) [ISO, isoproterenol] |  |  | activation of ERK1/2
